Results published in patent US20240158406A1, “PIPERAZINE DERIVATIVE AND USE THEREOF IN MEDICINE” (CHENGDU BAIYU PHARMACEUTICAL CO., LTD., priority 2021, published 2024).

Legend:
PARP7 = PARP7 (Homo sapiens (Human), UniProt Q7Z3E1); assay: Enzymatic biochemical assay of PARP (chemiluminescence detection kit), PARP7; settings: read-out: Inhibitory activity against PAPR7 (IC50)
Experimental: This assay adopted PARP1, TNKS1, TNKS2, PARP7 and PARP14 chemiluminescence detection kits (BPS, Cat No. 80551/80552/80573/80578/79729/80568) for enzymatic biochemical assay of PARP. The specific scheme was as follows: the 1× histone mixture was added to a 96-well plate at 50 μL per well, and the plate was incubated overnight at 4° C. The next day, after the plate was washed with PBST, 200 μL of blocking buffer per well was added, and the plate was incubated for 90 min. After the plate was washed with PBST again, 5 μL of inhibitor, 20 μL of 1×PARP buffer and 25 μL of […] were added to each well, and the plate was incubated at room temperature for 30 min. After the plate was washed with PBST, 100 μL of Elisa ECL substrate A and B mixture was added to each well, chemiluminescence value was immediately read using a plate reader, and IC50 values were calculated.

NCI-H1373 cells = assay: NCI-H1373 cell proliferation inhibition assay; type: cell-based; settings: Homo sapiens, NCI-H1373, 144 h; 6 days of incubation, Cell Titer Blue
Experimental: Human lung adenocarcinoma cells NC-H1373 (ATCC, CRL-5866M) were cultured in a cell incubator at 37° C. and 5% CO2 using RPMI-1640 medium containing 10% FBS and 1% […]. The cells in the logarithmic growth phase were counted by digestion and inoculated in a 96-well plate at 1500 NCI-H1373 per well, and the plate was placed in an incubator overnight. The next day, test compounds were formulated in 10 mM stock solution by using DMSO and 3-fold diluted in gradient from a maximum concentration of 10 μM by using RPMI-1640 medium, and 10 gradient concentrations were set with 2 parallel wells per concentration gradient. After 6 days of incubation, 100 μL of Cell Titer Blue working solution was added to each well and the chemiluminescence value was read in a microplate reader. IC50 was calculated using GraphPad Prism7.0 software.

[1] = Metabolic stability in liver microsome; type: in vitro ADME; settings: liver microsomes; 0.5 mg/mL CD1 mouse liver microsome, 0.5 μM test compound, NADPH and UDPGA, 37° C.
Experimental: 0.5 mg/mL CD1 mouse liver microsome solution, 0.5 μM test compound, 1.0 mM reduced nicotinamide adenine dinucleotide phosphate (NADPH), and 1.0 mM uridine diphosphate-A-glucuronic acid (UDPGA) were added to the incubation plate and mixed, and the plate was incubated at 37° C. for 0, 30, 60, 120 min separately. The positive control group was set as 0.5 μM CYP3A4 probe substrate-testosterone and 0.5 μM UGT probe substrate-7-hydroxycoumarin incubated with microsomes for 0 and 120 min in the presence of NADPH and UDPGA; the negative control group (NC) was set as the test substance incubated with microsomes for 0 and 120 min without any coenzyme. After the reaction was terminated by adding pre-cooled methanol at each termination time, the reaction mixture was centrifuged at 4000 rpm for 10 min, the supernatant was taken and the remaining amount of the parent drug in the sample was measured by LC-MS/MS, the results of which are shown in Table 4.

MDR1 = assay: MDCKII-MDR1 cell permeability assay; type: in vitro ADME; settings: dog, MDCK-MDR1, 1 μM test compound; for Papp A→B at 2 h, 1 μM: apical to basolateral; for Papp B→A at 2 h, 1 μM: basolateral to apical
Experimental: 50 μL of MDCKII-MDR1 cell suspension with a density of 1.56×10^6 cells/mL was seeded into a Transwell well of a 96-well plate, and the plate was cultured in a cell incubator at 37° C. in 5% CO2. […] The medium in Transwell was discarded, and HBSS equilibration solution was added and incubated at 37° C. for 30 min. Subsequently, an apical to basolateral drug transport rate assay was performed by adding 1 μM test compound solution to the Transwell AB side and a blank equilibration solution to the BL side. When the basolateral to apical drug transport rate assay was performed, the operation steps were reversed. Subsequently, the cells were placed in an incubator for 2 h. After the incubation, samples were taken from the basolateral and apical respectively, and after centrifugation, the supernatant was subjected to LC-MS/MS analysis, and the apparent permeability coefficient (Papp) was calculated, the results of which are shown in Table 5.

Chain of PARP7 (Q7Z3E1 whole entry): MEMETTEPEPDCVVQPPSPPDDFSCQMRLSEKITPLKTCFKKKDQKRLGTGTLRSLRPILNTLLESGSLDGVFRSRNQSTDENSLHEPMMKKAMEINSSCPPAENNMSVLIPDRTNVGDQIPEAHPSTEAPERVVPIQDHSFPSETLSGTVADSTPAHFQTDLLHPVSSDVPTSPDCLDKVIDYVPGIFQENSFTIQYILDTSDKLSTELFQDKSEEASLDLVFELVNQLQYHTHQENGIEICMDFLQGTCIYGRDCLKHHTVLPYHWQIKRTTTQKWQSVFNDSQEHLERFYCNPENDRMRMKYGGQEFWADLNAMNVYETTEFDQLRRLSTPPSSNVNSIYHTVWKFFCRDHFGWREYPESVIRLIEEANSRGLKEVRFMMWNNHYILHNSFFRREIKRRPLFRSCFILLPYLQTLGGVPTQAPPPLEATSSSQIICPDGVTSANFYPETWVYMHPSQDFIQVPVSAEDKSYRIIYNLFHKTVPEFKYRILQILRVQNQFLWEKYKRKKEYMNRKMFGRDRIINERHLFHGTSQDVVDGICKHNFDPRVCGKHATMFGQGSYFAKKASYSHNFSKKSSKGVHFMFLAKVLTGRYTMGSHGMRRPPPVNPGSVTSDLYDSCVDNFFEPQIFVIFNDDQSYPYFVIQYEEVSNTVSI

Row | SMILES | IC50 (PARP7) [nM] | IC50 (NCI-H1373 cells) [nM] | other results
1 | [2H]C([2H])(OC[C@H](C)Nc1cn[nH]c(=O)c1C(F)(F)F)c1cc2n(n1)CCN(c1cnc(C(F)(F)F)cn1)C2([2H])[2H] [Compound 21, (S)-4-(trifluoromethyl)-5-((1-((5-(5-(trifluoromethyl)pyrazin-2-yl)-4,5,6,7-tetrahydropyrazolo[1,5-a]pyrazin-2-yl-4,4-d2)methoxy-d2)propan-2-yl)amino)pyridazin-3(2H)-one] | < 10 | < 50 | 
2 | C[C@@H](COCc1cc2n(n1)CCN(c1cnc(C(F)(F)F)cn1)C2)Nc1cn[nH]c(=O)c1C(F)(F)F [Compound 5, (S)-4-(trifluoromethyl)-5-((1-((5-(5-(trifluoromethyl)pyrazin-2-yl)-4,5,6,7-tetrahydropyrazolo[1,5-a]pyrazin-2-yl)methoxy)propan-2-yl)amino)pyridazin-3(2H)-one] | < 10 | < 50 | 
3 | C[C@@H](COCc1nc2n(n1)CCN(c1ncc(C(F)(F)F)cn1)C2)Nc1cn[nH]c(=O)c1C(F)(F)F [Compound 9, (S)-4-(trifluoromethyl)-5-((1-((7-(5-(trifluoromethyl)pyrimidin-2-yl)-5,6,7,8-tetrahydro-[1,2,4]triazolo[1,5-a]pyrazin-2-yl)methoxy)propan-2-yl)amino)pyridazin-3(2H)-one] | 10 to 50 | < 50 | half-life at 0.5 μM [1]: > 0.5 h
4 | CC[C@@H](COCc1nc2n(n1)CCN(c1ncc(C(F)(F)F)cn1)C2)Nc1cn[nH]c(=O)c1C(F)(F)F [Compound 37, (S)-4-(trifluoromethyl)-5-((1-((7-(5-(trifluoromethyl)pyrimidin-2-yl)-5,6,7,8-tetrahydro-[1,2,4]triazolo[1,5-a]pyrazin-2-yl)methoxy)butan-2-yl)amino)pyridazin-3(2H)-one] |  |  | half-life at 0.5 μM [1]: > 1.67 h
5 | [2H]C([2H])(OC[C@H](C)Nc1cn[nH]c(=O)c1C(F)(F)F)c1cc2n(n1)CCN(c1ncc(C(F)(F)F)cn1)C2([2H])[2H] [Compound 2, (S)-4-(trifluoromethyl)-5-((1-((5-(5-(trifluoromethyl)pyrimidin-2-yl)-4,5,6,7-tetrahydropyrazolo[1,5-a]pyrazin-2-yl-4,4-d2)methoxy-d2)propan-2-yl)amino)pyridazin-3(2H)-one] |  | < 50 | 
6 | C[C@@H](COCc1cc2n(n1)CCN(c1ncc(C(F)(F)F)s1)C2)Nc1cn[nH]c(=O)c1C(F)(F)F [Compound 30] |  | 50 to 100 | 
7 | O=c1[nH]ncc(N2CCC[C@H]2COCc2nc3n(n2)CCN(c2ncc(C(F)(F)F)cn2)C3)c1C(F)(F)F [Compound 28, (S)-4-(trifluoromethyl)-5-(2-(((7-(5-(trifluoromethyl)pyrimidin-2-yl)-5,6,7,8-tetrahydro-[1,2,4]triazolo[1,5-a]pyrazin-2-yl)methoxy)methyl)pyrrolidin-1-yl)pyridazin-3(2H)-one] |  | 50 to 100 | 
8 | [2H]c1c(COC[C@H](C)Nc2cn[nH]c(=O)c2C(F)(F)F)nn2c1CN(c1ncc(C(F)(F)F)cn1)CC2 [Compound 25, (S)-4-(trifluoromethyl)-5-((1-((5-(5-(trifluoromethyl)pyrimidin-2-yl)-4,5,6,7-tetrahydropyrazolo[1,5-a]pyrazin-2-yl-d)methoxy)propan-2-yl)amino)pyridazin-3(2H)-one] |  | < 50 | 
9 | CSc1cnc(N2CCn3nc(COC[C@H](C)Nc4cn[nH]c(=O)c4C(F)(F)F)cc3C2)nc1 [Compound 39, (S)-5-((1-((5-(5-(methylthio)pyrimidin-2-yl)-4,5,6,7-tetrahydropyrazolo[1,5-a]pyrazin-2-yl)methoxy)propan-2-yl)amino)-4-(trifluoromethyl)pyridazin-3(2H)-one] |  | < 50 | efflux ratio at 2 h, 1 μM (MDR1): 4.09; Papp A→B at 2 h, 1 μM (MDR1): 8.82 ×10⁻⁶ cm/s; Papp B→A at 2 h, 1 μM (MDR1): 35.5 ×10⁻⁶ cm/s
10 | C[C@@H](CO[C@H](C)c1cc2n(n1)CCN(c1ncc(C(F)(F)F)cn1)C2)Nc1cn[nH]c(=O)c1C(F)(F)F [Compound 3-II, 4-(Trifluoromethyl)-5-(((S)-1-((R)-1-(5-(5-(trifluoromethyl)pyrimidin-2-yl)-4,5,6,7-tetrahydropyrazolo[1,5-a]pyrazin-2-yl)ethoxy)propan-2-yl)amino)pyridazin-3(2H)-one] | 50 to 100 |  | 
11 | C[C@@H](COCc1cc2n(n1)CCN(c1ccc(C(F)(F)F)cn1)C2=O)Nc1cn[nH]c(=O)c1C(F)(F)F [Compound 11, (S)-2-((2-((6-oxo-5-(trifluoromethyl)-1,6-dihydropyridazin-4-yl)amino)propoxy)methyl)-5-(5-(trifluoromethyl)pyridin-2-yl)-6,7-dihydropyrazolo[1,5-a]pyrazin-4(5H)-one] |  | 50 to 100 | half-life at 0.5 μM [1]: > 1.67 h
12 | C[C@@H](COCc1nn2c(c1Cl)CN(c1cnc(C(F)(F)F)cn1)CC2)Nc1cn[nH]c(=O)c1C(F)(F)F [Compound 14, (S)-5-((1-((3-chloro-5-(5-(trifluoromethyl)pyrazin-2-yl)-4,5,6,7-tetrahydropyrazolo[1,5-a]pyrazin-2-yl)methoxy)propan-2-yl)amino)-4-(trifluoromethyl)pyridazin-3(2H)-one] |  | 50 to 100 | 
13 | C[C@@H](COCc1nn2c(c1Cl)CN(c1ncc(C(F)(F)F)cn1)CC2)Nc1cn[nH]c(=O)c1C(F)(F)F [Compound 13, (S)-5-((1-((3-chloro-5-(5-(trifluoromethyl)pyrimidin-2-yl)-4,5,6,7-tetrahydropyrazolo[1,5-a]pyrazin-2-yl)methoxy)propan-2-yl)amino)-4-(trifluoromethyl)pyridazin-3(2H)-one] | 10 to 50 | < 50 | efflux ratio at 2 h, 1 μM (MDR1): 2.28; Papp A→B at 2 h, 1 μM (MDR1): 6.67 ×10⁻⁶ cm/s; Papp B→A at 2 h, 1 μM (MDR1): 14.8 ×10⁻⁶ cm/s
14 | C[C@H](OC[C@H](C)Nc1cn[nH]c(=O)c1C(F)(F)F)c1cc2n(n1)CCN(c1ncc(C(F)(F)F)cn1)C2 [Compound 3-I, 4-(Trifluoromethyl)-5-(((S)-1-((S)-1-(5-(5-(trifluoromethyl)pyrimidin-2-yl)-4,5,6,7-tetrahydropyrazolo[1,5-a]pyrazin-2-yl)ethoxy)propan-2-yl)amino)pyridazin-3(2H)-one] | < 10 | < 50 | 
15 | C[C@@H](COCc1nc2n(n1)CCN(c1ccc(C(F)(F)F)cn1)C2)Nc1cn[nH]c(=O)c1C(F)(F)F [Compound 26, (S)-4-(trifluoromethyl)-5-((1-((7-(5-(trifluoromethyl)pyridin-2-yl)-5,6,7,8-tetrahydro[1,2,4]triazolo[1,5-a]pyrazin-2-yl)methoxy)propan-2-yl)amino)pyridazin-3(2H)one] |  | < 50 | half-life at 0.5 μM [1]: > 1.67 h
16 | C[C@@H](COCc1nn2c(c1C(F)(F)F)CN(c1ncc(C(F)(F)F)cn1)CC2)Nc1cn[nH]c(=O)c1C(F)(F)F [Compound 19, (S)-4-(trifluoromethyl)-5-((1-((3-(trifluoromethyl)-5-(5-(trifluoromethyl)pyrimidin-2-yl)-4,5,6,7-tetrahydropyrazolo[1,5-a]pyrazin-2-yl)methoxy)propan-2-yl)amino)pyridazin-3(2H)-one] |  | < 50 | 
17 | [2H]C([2H])(OC[C@H](C)Nc1cn[nH]c(=O)c1C(F)(F)F)c1cc2n(n1)CCN(c1ccc(C#N)cn1)C2([2H])[2H] [Compound 23, (S)-6-(2-((2-((6-oxo-5-(trifluoromethyl)-1,6-dihydropyridazin-4-yl)amino)propoxy)methyl-d2)-6,7-dihydropyrazolo[1,5-a]pyrazin-5(4H)-yl-4,4-d2)nicotinonitrile] |  | 50 to 100 | 
